The values that follow come from patent US20020160932A1, “Uncompetitive inhibitors of helicase-primase” (priority 2000, published 2002).

The term IC50 denotes the concentration that inhibits the measured activity by half. For orientation: Ki means the equilibrium dissociation constant of an inhibitor or competing ligand from its target. The ED50 is the midpoint of the dose-response relation.

Each structure is given as a SMILES string. Where two headings read alike, the source gives them in different places. Bounds are passed on as bounds.

The subject of assay [1] is Wild-type HSV-1 (F). In words: in vitro viral replication assay, wild-type HSV-1 (F).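 For SI Wild-type HSV-1 (F): ratio of CC50 to antiviral IC50.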 Type of assay: cell-based, herpes simplex virus 1. Conditions: for SI Wild-type HSV-1 (F): selectivity index SI=(CC50/IC50).
Assay [2] deals with HSV-2 G. In words: in vitro viral replication assay, human HSV-2 G.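 For SI human HSV-2 G: ratio of CC50 to antiviral IC50.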 Type of assay: cell-based, herpes simplex virus 2. The note with it: for IC50: in vitro viral replication assay; for SI human HSV-2 G: selectivity index SI=(CC50/IC50).
Assay [3] has as its system HSV-1 Walkie. In words: in vivo lethal challenge model, HSV-1 Walki. The note with it: for in vivo lethal challenge model HSV-1 Walkie ED50: p.o., mice, 3 times a day for 5 days, survival; for ED50: Human alphaherpesvirus 1, in Mus musculus, po, 120 h, read-out: in vivo lethal challenge model HSV-1 Walkie ED50.
Description: (§1) 6-week old female mice, strain BALB/cABom, were purchased from a commercial breeder (Bomholtgard Breeding and Research Centre Ltd).
(§2) The animals were anaesthetized with diethyl ether (Merck) in a sealed glass vessel. 50 μl of a dilution of the virus stock (dose for infection 5×10^4 Pfu) were introduced with an Eppendorf pippette into the nose of the anaesthetized animals. This dose leads to death of 90-100% of the animals due to a generalized infection with prominent respiratory and central nervous symptoms after on average between 5 and 8 days.
(§3) 6 hours after the infection, the animals were treated with doses of 0.1-100 mg/kg of body weight 3 times day at 7.00 h, 14.00 h and 19 h over a period of 5 days. The substances were dissolved in DMSO and resuspended in Tylose/PBS (Hoechst) (final concentration 1.5% DMSO, 0.5% Tylose in PBS).
(§4) After the last administration, the animals were observed further and the times of death were recorded.
The subject of assay [4] is HSV-2 MS. As to the kind of experiment: in vivo lethal challenge model, HSV-2 MS. The note with it: for in vivo lethal challenge model HSV-2 MS ED50: p.o., mice, 3 times a day for 5 days, survival; for ED50: Human alphaherpesvirus 2, in Mus musculus, po, 120 h, read-out: in vivo lethal challenge model HSV-2 MS ED50, p.o., mice, 3 times a day for 5 days, survival.
Description: as §1, §2, §3, §4
Assay [5] relates to Active substance-resistant HSV-1 (F) mutants. Conditions: read-out: IC50 Active substance-resistant HSV-1 (F) mutants.
The subject of assay [6] is BHV. In words: in vitro viral replication assay, bovine BHV.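 For SI bovine BHV: ratio of CC50 to antiviral IC50.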 Type of assay: cell-based. The note with it: for IC50: in vitro viral replication assay; for SI bovine BHV: selectivity index SI=(CC50/IC50).
Assay [7] relates to clinical isolates (39 HSV-1 and 19 HSV-2 isolates). In words: activity on clinical isolates. Type of assay: cell-based, herpes simplex virus. Conditions: 39 HSV-1 and 19 HSV-2 isolates tested.
For assay [8], the system named is PRV. In words: cells. It counts as cell-based, porcine (PRV). Conditions: for IC50: read-out: IC50 porcine PRV.
For assay [9], the target named is HSV-1 helicase-primase heterodimer enzyme complex (UL5-UL52-6xHis) (Human herpesvirus 1, UniProt P10189+P10236). As to the kind of experiment: HSV-1 DNA-dependent ATPase assay. Conditions: for type of ATPase inhibition (mechanism): wild-type HSV-1 (F) helicase-primase.
Chain of HSV-1 helicase-primase heterodimer enzyme complex (UL5-UL52-6xHis) (P10236 whole entry): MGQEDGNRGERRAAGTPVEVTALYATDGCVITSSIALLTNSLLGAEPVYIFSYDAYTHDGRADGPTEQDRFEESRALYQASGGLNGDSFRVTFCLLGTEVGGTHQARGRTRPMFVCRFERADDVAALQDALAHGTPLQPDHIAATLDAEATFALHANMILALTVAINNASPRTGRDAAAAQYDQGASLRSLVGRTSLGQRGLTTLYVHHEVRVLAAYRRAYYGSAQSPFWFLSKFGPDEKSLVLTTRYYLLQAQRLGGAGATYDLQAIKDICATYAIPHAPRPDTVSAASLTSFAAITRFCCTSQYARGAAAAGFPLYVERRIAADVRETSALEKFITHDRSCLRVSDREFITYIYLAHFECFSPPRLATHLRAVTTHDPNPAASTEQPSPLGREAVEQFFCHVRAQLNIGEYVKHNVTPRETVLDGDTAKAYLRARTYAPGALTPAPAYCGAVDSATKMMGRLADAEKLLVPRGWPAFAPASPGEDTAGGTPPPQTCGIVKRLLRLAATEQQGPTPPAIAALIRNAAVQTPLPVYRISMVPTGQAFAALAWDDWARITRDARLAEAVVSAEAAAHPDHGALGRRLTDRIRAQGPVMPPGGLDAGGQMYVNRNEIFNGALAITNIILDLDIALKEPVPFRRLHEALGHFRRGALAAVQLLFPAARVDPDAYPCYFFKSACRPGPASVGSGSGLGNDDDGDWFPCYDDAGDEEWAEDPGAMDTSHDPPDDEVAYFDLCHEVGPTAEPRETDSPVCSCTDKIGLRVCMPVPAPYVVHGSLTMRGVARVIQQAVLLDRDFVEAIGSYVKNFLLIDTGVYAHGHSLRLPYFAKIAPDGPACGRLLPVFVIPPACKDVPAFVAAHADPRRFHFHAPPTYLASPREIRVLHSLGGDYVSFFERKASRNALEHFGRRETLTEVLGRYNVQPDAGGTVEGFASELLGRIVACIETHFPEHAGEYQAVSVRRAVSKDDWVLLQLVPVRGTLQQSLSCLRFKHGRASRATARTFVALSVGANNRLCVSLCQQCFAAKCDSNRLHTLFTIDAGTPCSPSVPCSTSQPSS
Chain of HSV-1 helicase-primase heterodimer enzyme complex (UL5-UL52-6xHis) (P10189 whole entry): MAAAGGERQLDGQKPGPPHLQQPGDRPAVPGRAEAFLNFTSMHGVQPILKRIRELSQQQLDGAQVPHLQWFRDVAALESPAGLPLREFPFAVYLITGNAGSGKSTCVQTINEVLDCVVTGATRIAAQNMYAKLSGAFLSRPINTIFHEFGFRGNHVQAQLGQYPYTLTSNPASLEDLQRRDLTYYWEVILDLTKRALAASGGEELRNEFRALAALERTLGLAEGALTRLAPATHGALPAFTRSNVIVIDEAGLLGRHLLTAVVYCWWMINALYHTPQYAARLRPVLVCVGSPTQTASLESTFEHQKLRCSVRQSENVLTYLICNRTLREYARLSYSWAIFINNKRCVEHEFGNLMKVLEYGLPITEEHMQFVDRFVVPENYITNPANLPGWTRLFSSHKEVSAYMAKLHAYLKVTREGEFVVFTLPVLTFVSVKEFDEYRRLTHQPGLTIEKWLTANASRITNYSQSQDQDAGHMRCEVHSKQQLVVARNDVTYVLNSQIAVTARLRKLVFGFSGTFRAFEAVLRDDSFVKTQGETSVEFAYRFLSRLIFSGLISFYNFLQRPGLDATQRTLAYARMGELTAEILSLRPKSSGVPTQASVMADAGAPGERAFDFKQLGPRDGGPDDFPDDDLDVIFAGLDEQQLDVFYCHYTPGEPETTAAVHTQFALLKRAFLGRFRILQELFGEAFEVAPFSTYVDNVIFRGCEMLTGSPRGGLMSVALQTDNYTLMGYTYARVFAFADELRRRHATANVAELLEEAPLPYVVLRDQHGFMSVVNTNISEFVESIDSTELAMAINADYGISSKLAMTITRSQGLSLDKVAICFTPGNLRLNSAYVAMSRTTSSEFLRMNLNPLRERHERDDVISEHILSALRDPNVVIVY
Excerpt: HSV-1 DNA-dependent ATPase assay (this in vitro assay permits testing for inhibition of the HSV-1 helicase-primase).
The HSV-1 helicase-primase heterodimer enzyme complex was [lacuna] with the aid of the recombinant baculovirus expression system in doubly infected Sf9 (Spodoptera frugiperda) cells. One recombinant baculovirus codes for the UL5 helicase gene and the second virus codes for the manipulated UL52-6×His primase gene.
The genes were amplified from the HSV-1 (F) genome by PCR (American Tissue Culture Collection ATCC VR-733) and cloned into the baculovirus (UL5→pFASTBAC1; UL52→pFASTHTb) as described in detail in the instruction manual for BAC-TO-BAC Baculovirus Expression Systems, Life-Technologies.
The purified heterodimeric helicase-primase complex (200 ng) was incubated with 1 μg of DNA (Sigma D3287 or D8681) in 20 mM HEPES (pH 7.6; 4-(2-hydroxyethyl)-1-piperazineethanesulphonic acid), 5 mM MgCl2, 0.2-5 mM ATP, 100 μg of BSA (bovine serum albumin) per ml, 10% glycerol, 1 mM DTT (DL-dithiothreitol) and, where appropriate, inhibitor in the appropriate concentration at 37° C. for 60 min.
The inhibition of the DNA-dependent ATPase activity was calculated from the change in the absorption in the presence and absence of inhibitor.
The Ki values were calculated with the assistance of the Sigma Plot software 4.0 and the method of nonlinear curve regression.
For this purpose, the ATPase activity of the helicase-primase heterodimer (detection through formation of inorganic phosphate (Pi)) was measured in the presence of saturated DNA concentrations and varying ATP and inhibitor concentrations, as explained in the ATPase assay section.
Where [10] appears, read: in vitro viral replication assay, read-out: IC50 Wild-type HSV-1 (F).

Turning to `CNS(=O)(=O)c1sc(N(C)C(=O)Nc2ccc(N3CCOCC3)cc2)nc1C` [Example 2], the IC50 in assay [1] (setting [10]) came to 500 nM. The “SI Wild-type HSV-1 (F)” value in [1] stood at 400. Moreover, in assay [2], the IC50 was found to be 1500 nM and the “SI human HSV-2 G” value is recorded as 200. Moreover, in [3], the “in vivo lethal challenge model HSV-1 Walkie ED50” value is recorded as 26 mg/kg. Besides, in assay [4], the “in vivo lethal challenge model HSV-2 MS ED50” value is on record as “weak”.

`CNS(=O)(=O)c1sc(N(C)C(=O)Nc2ccc(-c3ccccc3)cc2)nc1C` [Example 3]: the concentration for half-maximal inhibition (IC50) in [5] (mutant not named) was above 250000 nM; in [1] (setting [10]), 1 nM; in [2], 5 nM. In addition, in [1], the “SI Wild-type HSV-1 (F)” value is on record as 3E+05. Besides, the “SI human HSV-2 G” value in assay [2] is on record as 25000. In addition, the “in vivo lethal challenge model HSV-1 Walkie ED50” value in assay [3] was determined as 8 mg/kg. For the same compound, in assay [4], the “in vivo lethal challenge model HSV-2 MS ED50” value was 11 mg/kg.

Turning to `CNS(=O)(=O)c1sc(N(C)C(=O)Cc2ccc(-c3ccccc3)cc2)nc1C` [Example 4], the concentration for half-maximal inhibition (IC50) was 150 nM in assay [6]; above 250000 nM in [5] (Mutant 2 (UL5 K356N)); above 1000 nM in assay [5] (Mutant 6 (UL52 A897T)); 0.5 nM in [1] (setting [10]); 50 nM in assay [2]; 3000 nM in [8]. Besides, in assay [6], the “SI bovine BHV” value was 400. Moreover, the “SI Wild-type HSV-1 (F)” value in assay [1] is recorded as 1E+05. For the same compound, the “SI human HSV-2 G” value in assay [2] amounted to 5000. The “in vivo lethal challenge model HSV-1 Walkie ED50” value in [3] turned out to be 1 mg/kg. Besides, in [4], the “in vivo lethal challenge model HSV-2 MS ED50” value turned out to be 3 mg/kg. Further, the “activity on clinical isolates” value in assay [7] was “active on all the clinical isolates tested to date”. For the same compound, in assay [8], the “SI porcine PRV” value is recorded as 66.

For the compound `Cc1nc(N(C)C(=O)Cc2ccc(-c3ccccc3)cc2)sc1S(N)(=O)=O` [Example 5], in assay [6], the midpoint of inhibition, the IC50, lay at 50 nM and the “SI bovine BHV” value is on record as 5000. Besides, in [2], 5 nM corresponded to half-maximal inhibition (IC50) and the “SI human HSV-2 G” value is reported as 50000. In [3], the “in vivo lethal challenge model HSV-1 Walkie ED50” value was 0.5 mg/kg. The “in vivo lethal challenge model HSV-2 MS ED50” value in assay [4] turned out to be 1.1 mg/kg. For the same compound, the “activity on clinical isolates” value in [7] is on record as “active on all the clinical isolates tested to date”. Moreover, in assay [8], the “SI porcine PRV” value was found to be 13 and the IC50 turned out to be 8000 nM.

For the compound `Cc1nc(N(C)C(=O)Cc2ccc(-c3cc(F)ccc3F)cc2)sc1S(N)(=O)=O` [Example 6], the “Concentration of liberated inorganic phosphate” value (“Concentration” for short) in assay [9] (inhibitor 0.00128 μM, ATP 0.3 mM) was 0.066 mM; in assay [9] (inhibitor 0.00128 μM, ATP 0.4 mM), 0.067 mM; in assay [9] (inhibitor 0.00128 μM, ATP 0.6 mM) it was 0.085 mM; in assay [9] (inhibitor 0.00128 μM, ATP 0.8 mM) it was 0.099 mM; in assay [9] (inhibitor 0.00128 μM, ATP 1 mM) it was 0.108 mM; in [9] (inhibitor 0.00128 μM, ATP 3 mM), 0.127 mM. Besides, the “Concentration” value in assay [9] (inhibitor 0.0064 μM, ATP 0.3 mM) was 0.040 mM; in [9] (inhibitor 0.0064 μM, ATP 0.4 mM), 0.045 mM; in assay [9] (inhibitor 0.0064 μM, ATP 0.6 mM) it was 0.062 mM; in [9] (inhibitor 0.0064 μM, ATP 0.8 mM), 0.064 mM; in [9] (inhibitor 0.0064 μM, ATP 1 mM), 0.071 mM; in [9] (inhibitor 0.0064 μM, ATP 3 mM) it was 0.113 mM. For the same compound, the “Concentration” value in [9] (inhibitor 0.032 μM, ATP 0.3 mM) is listed as 0.025 mM; in assay [9] (inhibitor 0.032 μM, ATP 0.4 mM), 0.029 mM; in [9] (inhibitor 0.032 μM, ATP 0.6 mM) it was 0.037 mM; in assay [9] (inhibitor 0.032 μM, ATP 0.8 mM) it was 0.044 mM; in assay [9] (inhibitor 0.032 μM, ATP 1 mM) it was 0.055 mM; in assay [9] (inhibitor 0.032 μM, ATP 3 mM), 0.085 mM. Also, the “Concentration” value in assay [9] (inhibitor 0.16 μM, ATP 0.3 mM) was determined as 0.017 mM; in assay [9] (inhibitor 0.16 μM, ATP 0.4 mM), 0.022 mM; in [9] (inhibitor 0.16 μM, ATP 0.6 mM) it was 0.029 mM; in assay [9] (inhibitor 0.16 μM, ATP 0.8 mM), 0.033 mM; in [9] (inhibitor 0.16 μM, ATP 1 mM), 0.040 mM; in [9] (inhibitor 0.16 μM, ATP 3 mM), 0.066 mM. Further, the “Concentration” value in [9] (inhibitor 0.8 μM, ATP 0.3 mM) amounted to 0.010 mM; in [9] (inhibitor 0.8 μM, ATP 0.4 mM), 0.013 mM; in assay [9] (inhibitor 0.8 μM, ATP 0.6 mM), 0.019 mM; in assay [9] (inhibitor 0.8 μM, ATP 0.8 mM), 0.023 mM; in [9] (inhibitor 0.8 μM, ATP 1 mM), 0.027 mM; in assay [9] (inhibitor 0.8 μM, ATP 3 mM), 0.054 mM. Further, the “Concentration” value turned out to be 0.006 mM in assay [9] (inhibitor 4 μM, ATP 0.3 mM); 0.007 mM in assay [9] (inhibitor 4 μM, ATP 0.4 mM); 0.010 mM in [9] (inhibitor 4 μM, ATP 0.6 mM); 0.012 mM in assay [9] (inhibitor 4 μM, ATP 0.8 mM); 0.018 mM in assay [9] (inhibitor 4 μM, ATP 1 mM); 0.044 mM in assay [9] (inhibitor 4 μM, ATP 3 mM). In addition, the “Concentration” value in assay [9] (inhibitor 20 μM, ATP 0.3 mM) worked out at 0.004 mM; in assay [9] (inhibitor 20 μM, ATP 0.4 mM), 0.004 mM; in assay [9] (inhibitor 20 μM, ATP 0.6 mM) it was 0.006 mM; in [9] (inhibitor 20 μM, ATP 0.8 mM), 0.010 mM; in assay [9] (inhibitor 20 μM, ATP 1 mM), 0.008 mM; in assay [9] (inhibitor 20 μM, ATP 3 mM), 0.030 mM. Besides, the “Concentration” value in [9] (inhibitor 100 μM, ATP 0.3 mM) stood at 0.005 mM; in [9] (inhibitor 100 μM, ATP 0.4 mM), 0.006 mM; in [9] (inhibitor 100 μM, ATP 0.6 mM) it was 0.008 mM; in [9] (inhibitor 100 μM, ATP 0.8 mM), 0.008 mM; in assay [9] (inhibitor 100 μM, ATP 1 mM) it was 0.014 mM; in [9] (inhibitor 100 μM, ATP 3 mM), 0.032 mM. Also, in assay [9] (read-out: in vitro ATPase inhibition wild-type HSV-1 (F) Ki, nonlinear curve regression), the Ki was determined as 7 nM. Also, in [9], the “type of ATPase inhibition (mechanism)” value is reported as “un-”. Besides, the IC50 in assay [6] is 30 nM; in assay [5] (M1 + M2 (UL5 G352V)), above 125000 nM; in assay [8], 1500 nM. The “SI bovine BHV” value in [6] worked out at 6660. Also, the “in vivo lethal challenge model HSV-1 Walkie ED50” value in [3] is above 0.5 mg/kg. Moreover, the “in vivo lethal challenge model HSV-2 MS ED50” value in assay [4] was 0.5 mg/kg. In addition, the “activity on clinical isolates” value in assay [7] is listed as “active on all the clinical isolates tested to date”. Besides, the “SI porcine PRV” value in assay [8] came to 133.

Consider `Cc1nc(N(C)C(=O)Cc2ccc(-c3ccccn3)cc2)sc1S(N)(=O)=O` [Example 7], for which affinity in assay [9] was put at a Ki of 30 nM. The “type of ATPase inhibition (mechanism)” value in assay [9] was “uncom-”. The IC50 in assay [6] (Bos taurus) worked out at 125 nM; in assay [1] (Human alphaherpesvirus 1, read-out: IC50 Wild-type HSV-1 (F)) it was 20 nM; in [2] (Human alphaherpesvirus 2), 20 nM; in assay [8] (Sus scrofa), 5000 nM. In assay [6], the “SI bovine BHV” value is listed as 240. In addition, the “SI Wild-type HSV-1 (F)” value in assay [1] was determined as 2500. For the same compound, in assay [2], the “SI human HSV-2 G” value worked out at 3000. The ED50 in [3] was 0.5 mg/kg; in assay [4] it was around 0.5 mg/kg. For the same compound, the “activity on clinical isolates” value in [7] was “active on all the clinical isolates tested to date”. In assay [8], the “SI porcine PRV” value is reported as above 50.

`CC(C)[C@H](N)C(=O)OCCOCn1cnc2c(=O)[nH]c(N)nc21` [Valtrex, reference compound]: the ED50 in [3] turned out to be 17 mg/kg; in assay [4] it was 14 mg/kg.
